# Data as given in US12594350B2, “CD8-specific capture agents, compositions, and methods of using and making” (Regeneron Pharmaceuticals, Inc., priority 2016, dated 2026).
# Bridge positions count the residues as written; N and C are the ends. Square brackets hold non-standard residues; d marks the D form. Triazole bridges read from a SMILES are 1,4-linked. Ends that are not written are not given here. Peptide text beside a SMILES is read from it. * marks the point of attachment. Biotin = O=C1N[C@H]2[C@H](CS[C@H]2CCCCC(=O)*)N1; Lys(N3) = [N-]=[N+]=NCCCC[C@H](N)C(=O)O; Pra = C#CC[C@H](N)C(=O)O; AEA = NCCOCC(=O)O
# How the values were obtained:
# [1] = biological target: His-tagged CD8α human recombinant protein (Homo sapiens, UniProt P01732); experiment: CD8 ELISA (affinity assay) of biligands to determine cooperativity; format: binding; parameters: purchased Origene TP760215; settings: biotinylated biligand immobilized on NeutrAvidin plate; CD8α titrated 200 to 0 nM; read-out: EC50 against CD8
# Sequence of His-tagged CD8α human recombinant protein (P01732 22-235): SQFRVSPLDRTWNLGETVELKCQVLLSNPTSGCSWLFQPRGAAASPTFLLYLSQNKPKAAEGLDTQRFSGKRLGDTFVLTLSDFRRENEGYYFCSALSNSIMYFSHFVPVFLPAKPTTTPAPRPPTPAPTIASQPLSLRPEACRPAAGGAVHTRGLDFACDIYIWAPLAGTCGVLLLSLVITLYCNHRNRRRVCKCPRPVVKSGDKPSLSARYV
# Experimental: CD8 ELISA (Affinity assay). […] The plate was then blocked with 2 μM Biotin for 15 min.
# This predicts that an optimized linker to covalently join two PCC macrocycles will have a length near 28.2 Å. In FIG. 17 that prediction is validated by testing polyethylene glycol (PEG) linkers of varying lengths. […] This represents a >30-fold improvement in affinity relative to the individual PCC macrocyclic ligands. Shorter or longer linkers yield biligand affinities that, while improved over either of the PCC macrocycles, are about ˜10-fold below that of the optimal linker.
# [2] = In vivo PET imaging, PK and biodistribution in normal mice; settings: normal mouse, intravenous via tail vein, 50-100 μCi
# Protocol: In vivo PK of the radiolabeled macrocycle anchors and biligands was visualized and quantitatively determined by PET imaging in normal (healthy) mice. Radiolabeled peptides were formulated in PBS pH 7.4 containing <10% EtOH. 50-100 μCi of radiolabeled peptide was administered intravenously via the tail vein of each mouse. Dynamic (0-1 hour) and static PET imaging was performed to quantify initial peptide biodistribution, time to clear the initial concentration sites, and final excretion route. A CT scan was subsequently acquired for anatomical reference. Imaging was performed on GENISYS8 and Inveon microPET-CT small animal scanners.
# human PBMCs = experiment: Cellular binding assay of CD8 biligand by flow cytometry; format: cell-based; settings: human PBMCs co-stained with CD3-APC mAb; biligand 5 μM
# Experimental: Cryopreserved human peripheral blood mononuclear cells (PBMCs) from Zen-Bio (1 donor; #SER-PBMC-F) were thawed using Lymphocyte Medium (#LYMPH-1, Zen-Bio) following the vendor's protocol. Cells were then resuspended in FACS buffer (1× Dulbecco's Phosphate-Buffered Saline+2% Fetal Bovine Serum+2 mM EDTA).
# Protocol: A total of 1×10^6 human PBMCs in 50 μL of FACs buffer was incubated with 0.5 μL of Alexa Fluor 488-labeled biligand Cy(HGRGH) (SEQ ID NO: 21)-PEG5-Cy(AKYRG) (SEQ ID NO: 8) (final concentration: 5 μM), 2 μL of human CD3-APC mAb (clone: BW264/56) (#130-098-156, MACS Miltenyi Biotec), and 2.5 μL of 7-AAD Viability Staining Solution (#00-6993, eBioscience) at room temperature for 30 min. […] Data were obtained and analyzed with FACSCalibur and FACSDiva v8.0.1 (BD Biosciences), respectively.
# Flow cytometry was used to evaluate biligand detection of cellular CD8. […] Samples were then washed and analyzed for green (CD8; FITC-A) and red (CD3; APC-A) fluorescence. […] The cell populations in Q2 (10.9%) and Q4 (11.6%) were detected by the biligand as CD8+ and are consistent with the % CD8+ cells reported by the vendor. […] The cell populations detected by the CD8-FITC mAb were 11.2% in Q2 and 2.1% in Q4.
compound,measurement,setting,value
"C[C@H](O)[C@H]1NC(=O)[C@@H](Cc2c[nH]cn2)NC(=O)CNC(=O)[C@@H](N)CCCCn2cc(nn2)C[C@@H](C(=O)N[C@@H](CCCCNC(=O)CCCC[C@@H]2SC[C@@H]3NC(=O)N[C@@H]32)C(=O)NCCOCC(=O)N[C@H]2CCCCn3cc(nn3)C[C@@H](C(N)=O)NC(=O)[C@@H](Cc3c[nH]cn3)NC(=O)CNC(=O)[C@@H](CCCNC(=N)N)NC(=O)CNC(=O)[C@@H](Cc3c[nH]cn3)NC2=O)NC(=O)[C@H]2CCCN2C(=O)[C@@H](Cc2c[nH]c3ccccc23)NC1=O [Cy(Ghtwp)-Lys (Biotin)-PEG1-Cy(hGrGh)] (H-[Lys(N3)]G[dH][dT][dW][dP][Pra]K(Biotin)[AEA][Lys(N3)][dH]G[dR]G[dH][Pra]-NH2; triazole 1-7, 10-16)",EC50,[1],0.058 nM
"O=Cc1ccc([18F])cc1 [[^18F]FB, 4-[^18F]fluorobenzaldehyde]",biodistribution and clearance route by PET (in words),[2],"rapid kidney uptake and clearance, then near exclusive bladder occupancy by 30 minutes"
"Alexa Fluor 488-labeled biligand Cy(HGRGH)-PEG5-Cy(AKYRG): biligand Cy(HGRGH)-PEG5-Cy(AKYRG) resynthesized with an Alexa Fluor 488 label (not fully specified (bridges); also: PEG5 linker joins the two macrocycles, Alexa Fluor 488 label, site not given here)",cell population in Q2 detected as CD8+,human PBMCs,10.9%
same,cell population in Q4 detected as CD8+,human PBMCs,11.6%
